Results: US20260297092A1, “PYRAZOLOPYRIMIDINE DERIVATIVES AS INHIBITORS OF NLRP3” (Takeda Pharmaceutical Company Limited, priority 2023, published 2026)

Experiments:
[1] = tested on: NLRP3 inflammasome (IL-1β production in THP-1 cells); assay: IL-1β TR-FRET Assay (percentage of inhibition at 300 nM, 6 μM or 10 μM); assay type: cell-based, human; conditions: Homo sapiens, LPS priming, ATP activation; for inhibition at 0.3 µM: THP-1, 300 nM, read-out: IL-1β inhibitory rate at 300 nM (%); for inhibition at 6 µM: THP-1, 6 μM, read-out: IL-1β inhibitory rate at 6 μM (%)
In short: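 THP-1 cells were differentiated with 25 ng/mL IFN-γ for 24 h, primed with 50 ng/mL LPS in serum-free medium for 24 h, then given compound for 30 min before 20 mM ATP for 2 h. Supernatant IL-1β was measured by HTRF after 16-24 h at room temperature. Inhibition was normalized between DMSO (high) and 3 μM MCC-950 (low).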

[2] = tested on: TNF-α (NF-κB pathway, THP-1 cells); assay: TNF-α Assay (IC50); assay type: cell-based, human; conditions: Homo sapiens, 600 ng/mL LPS, 3 hours
In short: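 THP-1 cells differentiated to macrophages with 25 ng/mL IFN for 24 h, plated 40,000/well in serum-free medium, preincubated with compounds 30 min at 37 °C, then stimulated with 600 ng/mL LPS for 3 h. Supernatant TNF-α measured by ELISA; IC50 from four-parameter logistic fit, 100% inhibition defined by TPCA-1.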

IC50 [2] [µM] | Compound | inhibition at 0.3 µM [1] [%] | inhibition at 6 µM [1] [%] | inhibition at 10 µM ([1]; THP-1, 10 μM, read-out: IL-1β inhibitory rate at 10 μM (%)) [%]
> 30 | CCOc1nc2nn(-c3c(C)cc(C)cc3Cl)cc2c(=O)[nH]1 [Example 70, 2-(2-chloro-4,6-dimethylphenyl)-6-ethoxy-2,5-dihydro-4H-pyrazolo[3,4-d]pyrimidin-4-one] | 100 |  | 
> 30 | COC1(c2nc3nn(-c4c(C)cc(C)cc4O)cc3c(=O)[nH]2)CCC1 [Example 35, 2-(2-hydroxy-4,6-dimethylphenyl)-6-(1-methoxycyclobutyl)-2,5-dihydro-4H-pyrazolo[3,4-d]pyrimidin-4-one] | 96 |  | 
> 30 | Cc1cc(C)c(-n2cc3c(=O)[nH]c(C4(C)CC4)nc3n2)c(O)c1 [Example 25, 2-(2-hydroxy-4,6-dimethylphenyl)-6-(1-methylcyclopropyl)-2,5-dihydro-4H-pyrazolo[3,4-d]pyrimidin-4-one] | 100 |  | 
> 30 | Cc1cc(C)c(-n2cc3c(=O)[nH]c(-c4ccccc4F)nc3n2)c(O)c1 [Example 20, 6-(2-fluorophenyl)-2-(2-hydroxy-4,6-dimethylphenyl)-2,5-dihydro-4H-pyrazolo[3,4-d]pyrimidin-4-one] | 100 |  | 
> 30 | CCOc1nc2nn(-c3c(C)cc(C4(F)CC4)cc3C)cc2c(=O)[nH]1 [Example 245, 6-ethoxy-2-[4-(1-fluorocyclopropyl)-2,6-dimethylphenyl]-2,5-dihydro-4H-pyrazolo[3,4-d]pyrimidin-4-one] |  | 101 | 
3.4 | CO[C@@H]1CCCC[C@@H]1c1nc2nn(-c3c(C)cc(C)cc3O)cc2c(=O)[nH]1 (racemic) [Example 12, racemic mixture of 2-(2-hydroxy-4,6-dimethylphenyl)-6-[(1R,2R)-2-methoxycyclohexyl]-2,5-dihydro-4H-pyrazolo[3,4-d]pyrimidin-4-one and 2-(2-hydroxy-4,6-dimethylphenyl)-6-[(1S,2S)-2-methoxycyclohexyl]-2,5-dihydro-4H-pyrazolo[3,4-d]pyrimidin-4-one] | 99 |  | 
> 30 | COc1nc2nn(-c3c(C)cc(Br)cc3C)cc2c(=O)[nH]1 [Example 138, 2-(4-bromo-2,6-dimethylphenyl)-6-methoxy-2,5-dihydro-4H-pyrazolo[3,4-d]pyrimidin-4-one] | 93 |  | 
> 30 | CCOc1nc2nn(-c3c(C)cc(C)cc3C)cc2c(=O)[nH]1 [Example 106, 6-ethoxy-2-(2,4,6-trimethylphenyl)-2,5-dihydro-4H-pyrazolo[3,4-d]pyrimidin-4-one] | 97 |  | 
> 30 | Cc1cc(C)c(-n2cc3c(=O)[nH]c(OC(C)C)nc3n2)c(O)c1 [Example 7, 2-(2-hydroxy-4,6-dimethylphenyl)-6-[(propan-2-yl)oxy]-2,5-dihydro-4H-pyrazolo[3,4-d]pyrimidin-4-one] | 99 |  | 
> 30 | COc1nc2nn(-c3c(C)cc(C4CC4)cc3OC(F)F)cc2c(=O)[nH]1 [Example 252, 2-[4-cyclopropyl-2-(difluoromethoxy)-6-methylphenyl]-6-methoxy-2,5-dihydro-4H-pyrazolo [3,4-d]pyrimidin-4-one] |  | 103 | 
> 30 | CCOc1nc2nn(-c3c(F)cc(C)cc3OC(F)F)cc2c(=O)[nH]1 [Example 108] | 98 |  | 

Further lines, the compound ahead of its results:

Compound | IC50 [2] [µM] | inhibition at 0.3 µM [1] [%] | inhibition at 6 µM [1] [%] | inhibition at 10 µM ([1]; THP-1, 10 μM, read-out: IL-1β inhibitory rate at 10 μM (%)) [%]
Cc1ccc(-n2nc3nc(-c4ccccn4)[nH]c(=O)c3c2C)c(O)c1 [Example 124, 2-(2-hydroxy-4-methylphenyl)-3-methyl-6-(pyridin-2-yl)-2,5-dihydro-4H-pyrazolo[3,4-d]pyrimidin-4-one] | > 30 | 97 |  | 
Cc1cc(C2CC2)cc(C)c1-n1cc2c(=O)[nH]c([C@H]3C[C@@H](F)C3)nc2n1 [Example 249, 2-(4-cyclopropyl-2,6-dimethylphenyl)-6-[(1s,3s)-3-fluorocyclobutyl]-2,5-dihydro-4H-pyrazolo[3,4-d]pyrimidin-4-one] | > 30 |  | 98 | 
Cc1ccc(-n2cc3c(=O)[nH]c(OC4CCOCC4)nc3n2)c(C)c1 [Example 176, 2-(2,4-dimethylphenyl)-6-[(oxan-4-yl)oxy]-2,5-dihydro-4H-pyrazolo[3,4-d]pyrimidin-4-one] | > 30 | 101 |  | 
CCOc1nc2nn(-c3ncc(Br)cc3C(F)(F)F)cc2c(=O)[nH]1 [Example 148, 2-[5-bromo-3-(trifluoromethyl)pyridin-2-yl]-6-ethoxy-2,5-dihydro-4H-pyrazolo[3,4-d]pyrimidin-4-one] | > 30 | 96 |  | 
O=c1[nH]c([C@@H]2COCCO2)nc2nn(-c3c(F)cc(C4CC4)cc3C(F)F)cc12 (single isomer, unassigned) [Example 313, 2-[4-cyclopropyl-2-(difluoromethyl)-6-fluorophenyl]-6-[(2S)-1,4-dioxan-2-yl]-2,5-dihydro-4H-pyrazolo[3,4-d]pyrimidin-4-one or 2-[4-cyclopropyl-2-(difluoromethyl)-6-fluorophenyl]-6-[(2R)-1,4-dioxan-2-yl]-2,5-dihydro-4H-pyrazolo[3,4-d]pyrimidin-4-one] | > 30 |  | 104 | 
Cc1cc(Cl)ccc1-n1cc2c(=O)[nH]c(C3CCCN(C)C3)nc2n1 (stereo not shown) [Example 102, 2-(4-chloro-2-methylphenyl)-6-(1-methylpiperidin-3-yl)-2,5-dihydro-4H-pyrazolo[3,4-d]pyrimidin-4-one] | > 30 |  |  | 97
Cc1ccc(C)c(-n2cc3c(=O)[nH]c(-c4ccncn4)nc3n2)c1O [Example 41, 2-(2-hydroxy-3,6-dimethylphenyl)-6-(pyrimidin-4-yl)-2,5-dihydro-4H-pyrazolo[3,4-d]pyrimidin-4-one] | > 30 | 99 |  | 
Cc1cc(C2CC2)cc(C)c1-n1cc2c(=O)[nH]c(COC(F)F)nc2n1 [Example 224, 2-(4-cyclopropyl-2,6-dimethylphenyl)-6-[(difluoromethoxy)methyl]-2,5-dihydro-4H-pyrazolo[3,4-d]pyrimidin-4-one] | > 30 | 104 |  | 
Cc1cc(C2CC2)cc(C)c1-n1cc2c(=O)[nH]c(C3CCOCC3)nc2n1 [Example 198, 2-(4-cyclopropyl-2,6-dimethylphenyl)-6-(oxan-4-yl)-2,5-dihydro-4H-pyrazolo[3,4-d]pyrimidin-4-one] | > 30 | 95 |  | 
CCOc1nc2nn(-c3c(F)cc(Br)cc3C(F)(F)F)cc2c(=O)[nH]1 [Example 19, 2-[4-bromo-2-fluoro-6-(trifluoromethyl)phenyl]-6-ethoxy-2,5-dihydro-4H-pyrazolo[3,4-d]pyrimidin-4-one] | > 30 | 95 |  | 
CCOc1nc2nn(-c3c(Br)cc(OC(F)F)cc3C(F)F)cc2c(=O)[nH]1 [Example 184, 2-[2-bromo-4-(difluoromethoxy)-6-(difluoromethyl)phenyl]-6-ethoxy-2,5-dihydro-4H-pyrazolo[3,4-d]pyrimidin-4-one] | > 30 | 94 |  | 
CCOc1nc2nn(-c3c(C)cc(C4CC4)cc3C#N)cc2c(=O)[nH]1 [Example 179, 5-cyclo propyl-2-(6-ethoxy-4-oxo-4,5-dihydro-2H-pyrazolo[3,4-d]pyrimidin-2-yl)-3-methylbenzonitrile] | > 30 | 102 |  | 
